# Test results published in patent US6774220B1, “Compounds having lectinic properties and their biological applications” (Association pour le Développement de la Biothérapie …, priority 1995, dated 2004).
# How the values were obtained:
# [1] = target: oligopeptide 41-55 (SEQ ID NO: 5) (Homo sapiens, UniProt P08729); test: Antibody titre against oligopeptide antigen 41-55; assay type: binding
# Text: (§1) By operating according to standard techniques, the formation of antibodies against the SEQ ID NO: 5 peptides or SEQ ID NO:6 is induced. The specific characters of these antibodies is set out in Table 7.
# [2] = target: oligopeptide 81-95 (SEQ ID NO: 6) (Homo sapiens, UniProt P08729); test: Antibody titre against oligopeptide antigen 81-95; assay type: binding
# Text: as §1
# [3] = tested on: Ost. Sarc. ESS (SCLs excreted by the osteogenic sarcoma ESS); test: Antibody titre against SCL excreted by osteogenic sarcoma ESS; assay type: binding
# Text: as §1
# murine sarcolectin = test: Action of simple sugars on the agglutination of cells by sarcolectin; assay type: cell-based, Swiss mice; settings: in the presence of 2 agglutinating units of murine sarcolectin; H9 cells
# Experimental: A wide variety of cells originating either from rodents or from primates was tested. Agglutination is obtained by suspending the cells in an MEM medium in the absence of serum. The test may be carried out in two ways, either in the presence of a sarcolectin dilution range in a base 2 geometric progression, by identifying the concentration at which 50% of the cells are agglutinated, or by identifying the affinity of the various sugars for the cell receptors.
# In the example shown, murine sarcolectin originating from the ascitic fluid of Swiss mice grafted with Crocker TG180 sarcoma contains 32 units agglutinating the H9 cells which originate from a T lymphoma, fixed by 10% formaldehyde.
# The table below illustrates the affinity of the receptors for the various sugars in the presence of 2 agglutinating units.
# [4] = tested on: encephalomyocarditis virus (EMC); test: Protection of IFN against the encephalomyocarditis virus in Swiss mice, with SCL inhibiting sugars; assay type: in vivo; settings: EMC virus i.p.
# Experimental: The model used is the encephalomyocarditis virus (EMC) which kills mice in practically all cases after rather varying but relatively short incubation periods.
# Male mice (average weight: […], aged 8 to 10 weeks) were injected i.p. with sodium galacturonate, glucosamine and N-acetylneuraminic acid (5 to 10% solutions containing 100 mM sugar). 24 hours afterwards, one hundred lethal doses (50%) of EMC virus are injected by the same route. After one hour, murine interferon is injected (in a dose of 20,000 units in 0.5 ml). Table 3 gives the number of animals surviving out of the total tested, the percentage and statistical significance.
# T (lympho) cells = test: Stimulation over 24 hours of the synthesis of DNA in T (lympho) cells; assay type: cell-based
# Experimental: XI Stimulation over 24 hours of the synthesis of DNA in T (lympho) cells
# TG-180 tumour cells = test: Antitumour action on grafted TG-180 ascitic tumour
# Experimental: In order to test the antitumour capacity of SCL inhibiting sugars, TG-180 tumour cells originating from a tumour resistant to chemical metabolic inhibitors was grafted. In a concentration of 3×10^6 cells injected i.p. into 20 gr Swiss mice, an ascitic tumour is obtained which is detectable in 10 days and kills practically 100% of the animals in 21-25 days.
# In parallel series, the various groups of animals were treated 3 days after inoculation, either with a specific sugar (glucosamine, lactose, galacturonate, N.A.N.A., neuramine-lactose) in a 5 to 10% solution, the sugar concentration being 100 mM, or with the same treatment in association with an injection of immuno-stimulant (extract of corynebacterium parvum, Merieux, France), in a dose of 200 g/mouse, or interferon, or both.
# 4 groups of mice per experiment were used.
# They are assessed by the percentage of tumours that appeared on the 10th day, the mean survival time of the animals (MST) in. days, and the final survival (as a percentage).
# [5] = single agent (+MEM, or IFN in reference group)
# [6] = IL2 (100 u) +SCL + inhibitor (NANA 0.75 mmol.; oligo 41-55 3 μγ/ml)
molecule,measurement,setting,value
41-55 (GLGASRPRVAVRSAY),"antibody titre, oligopeptide 41-55 as antigen",[1],>12 600
same,"antibody titre, oligopeptide 81-95 as antigen",[2],<200
same,"antibody titre, Ost. Sarc. ESS as antigen",[3],>12 800
OC[C@H]1O[C@@H](O[C@H]2[C@H](O)[C@@H](O)[C@@H](O)O[C@@H]2CO)[C@H](O)[C@@H](O)[C@H]1O [α lactose],affinity,murine sarcolectin,0.125 mM
81-95 (DPFSQRVRQEESEQI),"antibody titre, oligopeptide 41-55 as antigen",[1],<200
same,"antibody titre, oligopeptide 81-95 as antigen",[2],>12 800
OC[C@H]1OC(O)[C@H](O)[C@@H](O)[C@H]1O (stereo partly drawn) [D galactose],affinity,murine sarcolectin,0.28 mM
"CC(=O)N[C@H]1[C@H]([C@H](O)[C@H](O)CO)OC(O)(C(=O)O)C[C@@H]1O (stereo partly drawn) [N.A.N.A, N-acetylneuraminic acid]",affinity,murine sarcolectin,0.0075 mM
same,number of animals surviving out of the total number tested,[4]; [5],0/15
same,percentage surviving,[4]; [5],0%
same,number of animals surviving out of the total number tested,"[4]; sugar +IFN (20,000 units)",8/15c
same,percentage surviving,"[4]; sugar +IFN (20,000 units)",53%
same,effect on the stimulation of DNA synthesis by SCL (in words),T (lympho) cells; 24 hours,inhibited
same,"synthesis of DNA, EXP. N° 1",T (lympho) cells; [6],"4,657 ± 214.78"
same,"synthesis of DNA, EXP. N° 2",T (lympho) cells; [6],"27,133 ± 1771"
same,Final survival (%),TG-180 tumour cells; +CP,(53) %
same,"Final survival, Number",TG-180 tumour cells; +CP,8
same,MST (mean survival time),TG-180 tumour cells; +CP,69 ± 12 days
same,Tumours on 10th day (%),TG-180 tumour cells; +CP,40%
same,"Tumours on 10th day, number",TG-180 tumour cells; +CP,6
same,Final survival (%),TG-180 tumour cells; +CP +IFN,(36) %
same,"Final survival, Number",TG-180 tumour cells; +CP +IFN,11
same,MST (mean survival time),TG-180 tumour cells; +CP +IFN,70 ± 12 days
same,Tumours on 10th day (%),TG-180 tumour cells; +CP +IFN,43%
same,"Tumours on 10th day, number",TG-180 tumour cells; +CP +IFN,13
same,Final survival (%),TG-180 tumour cells; +IFN,(13) %
same,"Final survival, Number",TG-180 tumour cells; +IFN,4
same,MST (mean survival time),TG-180 tumour cells; +IFN,39 ± 12 days
same,Tumours on 10th day (%),TG-180 tumour cells; +IFN,16%
same,"Tumours on 10th day, number",TG-180 tumour cells; +IFN,5
same,Final survival (%),TG-180 tumour cells; agent alone,(0) %
same,"Final survival, Number",TG-180 tumour cells; agent alone,0
same,MST (mean survival time),TG-180 tumour cells; agent alone,24 ± 6 days
same,Tumours on 10th day (%),TG-180 tumour cells; agent alone,34%
same,"Tumours on 10th day, number",TG-180 tumour cells; agent alone,9
OC[C@H]1O[C@@H](O[C@H]2[C@H](O)[C@@H](O)[C@H](O)O[C@@H]2CO)[C@H](O)[C@@H](O)[C@H]1O [β lactose],affinity,murine sarcolectin,0.25 mM
